Where a name gives a salt, the structure may show the parent alone.
Assays:
[1] = test system: leukotriene pathway in human whole blood (LTB4 levels); experiment: Human whole blood assay (LTB4); assay type: cell-based; settings: human whole blood diluted 1:1 in RPMI, stimulated with calcium ionophore A23187; single replicate
Protocol: (§1) The ability of the compounds of the present invention to treat a FLAP-mediated disease and/or disorder, or associated symptoms or complications thereof, was determined using the following procedures. Binding assay data represent the average value obtained from two different assay plates, with samples run in duplicate on each plate. Human whole blood assay data represent a single replicate on an assay plate using whole blood from at least one healthy donor.
An in vitro cellular assay was performed using human whole blood collected in heparin-containing tubes, which was used to test the ability of compounds to modulate the leukotriene pathway in human whole blood. The blood was diluted 1:1 in RPMI medium, pre-incubated for 15 min at 37° Celsius with test compounds at various concentrations, and then stimulated with calcium ionophore, A23187 (7 μg/mL), for 30 min at 37° Celsius. The samples were then centrifuged and plasma was removed. The plasma was diluted in assay buffer and LTB4 levels were measured using a commercial kit (Enzo Life Sciences). The concentration of each compound that was required for half-maximal inhibition (modulation) of recombinant enzyme activity (IC50) was calculated by a 4-parameter equation using the program GraphPad Prism (GraphPad software).

human FLAP = human FLAP (Homo sapiens (Human), UniProt P20292); experiment: FLAP binding assay (HTRF); settings: human FLAP-containing membranes, HTRF format; average of two assay plates, duplicates; read-out: FLAP Binding wild type HTRF Ki
Chain of human FLAP (P20292 whole entry): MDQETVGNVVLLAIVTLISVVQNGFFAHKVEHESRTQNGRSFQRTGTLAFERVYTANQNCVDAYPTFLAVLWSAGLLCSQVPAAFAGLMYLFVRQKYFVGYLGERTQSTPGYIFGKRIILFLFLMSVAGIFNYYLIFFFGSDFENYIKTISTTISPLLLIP
Protocol: as §1
Data are expressed as a HTRF ratio.

Molecule	IC50 [1]	Ki (human FLAP)
2-[3-(Benzyloxy)-4-cyclobutyl-2- fluorophenyl]-5H-pyrrolo[2,3-b]pyrazine [Example 177]	771 nM	–
Nc1cnc(-c2ccc(C3CCC3)c(OCC(O)CNc3ncccn3)c2F)cn1 (racemic) [Example 56, racemic 1-(3-(5-Aminopyrazin-2-yl)-6-cyclobutyl-2-fluorophenoxy)-3-(pyrimidin-2-ylamino)propan-2-ol]	644 nM	–
Nc1cnc(-c2ccc(C3CCC3)c(OCC(O)Cn3cccn3)c2F)cn1 (racemic) [Example 60, racemic 1-(3-(5-Aminopyrazin-2-yl)-6-cyclobutyl-2-fluorophenoxy)-3-(1H-pyrazol-1-yl)propan-2-ol]	732 nM	–
N#Cc1cnn(CC(O)COc2c(C3CCC3)ccc(-c3cnc(N)cn3)c2F)c1N (racemic) [Example 65, racemic 5-Amino-1-(3-(3-(5-aminopyrazin-2-yl)-6-cyclobutyl-2-fluorophenoxy)-2-hydroxypropyl)-1H-pyrazole-4-carbonitrile]	107 nM	–
Nc1cnc(-c2ccc(C3CCC3)c(OCC(O)CNc3ccn[nH]3)c2F)cn1 (racemic) [Example 67, racemic 1-((1H-Pyrazol-5-yl)amino)-3-(3-(5-aminopyrazin-2-yl)-6-cyclobutyl-2-fluorophenoxy)propan-2-ol]	727 nM	–
CS(=O)(=O)c1cccc(COc2c(C3CCC3)ccc(-c3cnc(N)cn3)c2F)c1 [Example 6, 5-(4-Cyclobutyl-2-fluoro-3-{[3-(methylsulfonyl)benzyl]oxy}phenyl)-pyrazin-2-amine]	1220 nM	–
Nc1cnc(-c2ccc(C3CCC3)c(OCc3ccc(F)c(F)c3)c2F)cn1 [Example 33, 5-{4-Cyclobutyl-3-[(3,4-difluorobenzyl)oxy]-2-fluorophenyl}pyrazin-2-amine]	1410 nM	–
COc1c(C2CCC2)ccc(-c2cnc3[nH]cnc3n2)c1F [Example 182, 5-(4-cyclobutyl-2-fluoro-3-methoxyphenyl)-1H-imidazo[4,5-b]pyrazine]	–	1940 nM
COc1c(Br)ccc(-c2cnc(N)cn2)c1F [Example 210, 5-(4-bromo-2-fluoro-3-methoxyphenyl)-pyrazin-2-amine]	–	2500 nM
COc1c(C2CCCC2)ccc(-c2cnc(N)cn2)c1F [Example 211, 5-(4-Cyclopentyl-2-fluoro-3-methoxyphenyl)pyrazin-2-amine]	–	527 nM
CC(C)(C)c1ccc(-c2cnc(N)cn2)cc1OCc1ccccc1 [Example 215, 5-[3-(Benzyloxy)-4-tert-butylphenyl]pyrazin-2-amine]	–	620 nM
Nc1cnc(-c2ccc(Cl)c(OCc3ccccc3)c2F)cn1 [Example 216, 5-[3-(Benzyloxy)-4-chloro-2-fluorophenyl]pyrazin-2-amine]	–	866 nM
Nc1cnc(-c2ccc(C3CCC3)c(OCc3ccccc3)c2)cn1 [Example 217, 5-[3-(Benzyloxy)-4-cyclobutylphenyl]pyrazin-2-amine]	–	1250 nM
COc1c(C2CCC2)ccc(-c2ccc(N)nn2)c1F [Example 219, 6-(4-cyclobutyl-2-fluoro-3-methoxyphenyl)pyridazin-3-amine]	–	> 10000 nM
Oc1c(C2CCC2)ccc(-c2cc3cc[nH]c3nn2)c1F [Example 221, 6-cyclobutyl-2-fluoro-3-(7H-pyrrolo[2,3-c]pyridazin-3-yl)phenol]	–	593 nM
Nc1ccc(-c2ccc(C3CCC3)c(O)c2F)nn1 [Example 223, 3-(6-aminopyridazin-3-yl)-6-cyclobutyl-2-fluorophenol]	–	> 10000 nM
Nc1ccc(-c2ccc(C3CCC3)c(Oc3ncccn3)c2F)nn1 [Example 231, 6-(4-cyclobutyl-2-fluoro-3-(pyrimidin-2-yloxy)phenyl)pyridazin-3-amine]	–	2140 nM
COc1cc(Oc2c(C3CCC3)ccc(-c3ccc(N)nn3)c2F)ncn1 [Example 232, 6-(4-cyclobutyl-2-fluoro-3-((6-methoxypyrimidin-4-yl)oxy)phenyl)pyridazin-3-amine]	–	1590 nM
Nc1ccc(-c2ccc(C3CCC3)c(Oc3cc(O)ncn3)c2F)nn1 [Example 233, 6-(3-(6-aminopyridazin-3-yl)-6-cyclobutyl-2-fluorophenoxy)pyrimidin-4-ol]	–	1680 nM
Nc1cnc(-c2ccc(C3CCC3)c(OCC3CCOCC3)c2F)cn1 [Example 264, 5-[4-Cyclobutyl-2-fluoro-3-(tetrahydro-2H-pyran-4-ylmethoxy)phenyl]pyrazin-2-amine]	–	> 10000 nM

Molecule	IC50 [1]	Ki (human FLAP)
CS(=O)(=O)c1cc(C#N)ccc1Oc1c(C2CCC2)ccc(-c2cnc(N)cn2)c1F [Example 265, 4-[3-(5-Aminopyrazin-2-yl)-6-cyclobutyl-2-fluorophenoxy]-3-(methylsulfonyl)benzonitrile]	–	> 10000 nM
Nc1cnc(-c2ccc(C3CCC3)c(Oc3ccc(C(F)(F)F)cc3C(F)(F)F)c2F)cn1 [Example 266, 5-{3-[2,4-Bis(trifluoromethyl)phenoxy]-4-cyclobutyl-2-fluorophenyl}pyrazin-2-amine]	–	> 10000 nM
CN(C)CCCOc1c(C2CCC2)ccc(-c2cnc(N)cn2)c1F [Example 267, 5-{4-Cyclobutyl-3-[3-(dimethylamino)propoxy]-2-fluorophenyl}pyrazin-2-amine]	–	> 10000 nM
CN(C)CCOc1c(C2CCC2)ccc(-c2cnc(N)cn2)c1F [Example 268, 5-{4-Cyclobutyl-3-[2-(dimethylamino)ethoxy]-2-fluorophenyl}pyrazin-2-amine]	–	> 10000 nM
Nc1ccnc(Oc2c(C3CCC3)ccc(-c3cc4cc[nH]c4nn3)c2F)n1 [Example 270, 2-[6-Cyclobutyl-2-fluoro-3-(7H-pyrrolo[2,3-c]pyridazin-3-yl)phenoxy]pyrimidin-4-amine]	–	800 nM
N#Cc1nc(N)ncc1Oc1c(C2CCC2)ccc(-c2cnc(N)cn2)c1F [Example 273, 2-Amino-5-[3-(5-aminopyrazin-2-yl)-6-cyclobutyl-2-fluorophenoxy]pyrimidine-4-carbonitrile]	–	> 10000 nM
Cn1ccnc1COc1c(C2CCC2)ccc(-c2cnc(N)cn2)c1F [Example 280, 5-{4-Cyclobutyl-2-fluoro-3-[(1-methyl-1H-imidazol-2-yl)methoxy]phenyl}pyrazin-2-amine trifluoroacetic acid salt]	–	> 10000 nM
Nc1cnc(-c2ccc(C3CCC3)c(OCc3nc4ccccc4s3)c2F)cn1 [Example 283, 5-[3-(1,3-Benzothiazol-2-ylmethoxy)-4-cyclobutyl-2-fluorophenyl]pyrazin-2-amine trifluoroacetic acid salt]	–	97.6 nM
Cn1cnc(COc2c(C3CCC3)ccc(-c3cnc(N)cn3)c2F)c1 [Example 284, 5-{4-Cyclobutyl-2-fluoro-3-[(1-methyl-1H-imidazol-4-yl)methoxy]phenyl}pyrazin-2-amine trifluoroacetic acid salt]	–	> 10000 nM
Cn1cncc1COc1c(C2CCC2)ccc(-c2cnc(N)cn2)c1F [Example 285, 5-{4-Cyclobutyl-2-fluoro-3-[(1-methyl-1H-imidazol-5-yl)methoxy]phenyl}pyrazin-2-amine trifluoroacetic acid salt]	–	> 10000 nM
Nc1cnc(-c2ccc(C3CCC3)c(OCc3cccnn3)c2F)cn1 [Example 288, 5-[4-Cyclobutyl-2-fluoro-3-(pyridazin-3-ylmethoxy)phenyl]pyrazin-2-amine trifluoroacetic acid salt]	–	365 nM
NCCOc1c(C2CCC2)ccc(-c2cnc(N)cn2)c1F [Example 294, 5-[3-(2-aminoethoxy)-4-cyclobutyl-2-fluorophenyl]pyrazin-2-amine]	–	691 nM
Nc1cnc(-c2ccc(C3CCC3)c(OCC3CCNCC3)c2F)cn1 [Example 298, 5-[4-Cyclobutyl-2-fluoro-3-(piperidin-4-ylmethoxy)phenyl]pyrazin-2-amine hydrogen chloride salt]	–	> 10000 nM
Nc1cnc(-c2ccc(C3CCC3)c(OCC3CNC3)c2F)cn1 [Example 301, 5-[3-(Azetidin-3-ylmethoxy)-4-cyclobutyl-2-fluorophenyl]pyrazin-2-amine]	–	> 10000 nM
Cc1ccc(-c2cnc(N)cn2)c(F)c1Oc1ncccn1 [Example 314, 5-[2-Fluoro-4-methyl-3-(pyrimidin-2-yloxy)phenyl]pyrazin-2-amine]	–	> 10000 nM
Cc1ccc(-c2cnc(N)cn2)c(F)c1Oc1nccc(N)n1 [Example 315, 2-[3-(5-Aminopyrazin-2-yl)-2-fluoro-6 methylphenoxy]pyrimidin-4-amine]	–	1360 nM
CCc1ccc(-c2cnc(N)cn2)c(F)c1Oc1ncccn1 [Example 316, 5-[4-Ethyl-2-fluoro-3-(pyrimidin-2-yloxy)phenyl]pyrazin-2-amine]	–	289 nM
CC(C)CCc1ccc(-c2cnc(N)cn2)c(F)c1Oc1ncccn1 [Example 322, 5-(2-Fluoro-4-isopentyl-3-(pyrimidin-2 yloxy)phenyl)pyrazin-2-amine]	–	573 nM
Nc1cnc(-c2ccc(CC3CCCCC3)c(Oc3nccc(N)n3)c2F)cn1 [Example 326, 2-(3-(5-Aminopyrazin-2-yl)-6-(cyclohexylmethyl)-2-fluorophenoxy)pyrimidin-4-amine]	–	358 nM
CC(C)CCc1ccc(-c2cnc(N)cn2)c(F)c1Oc1nccc(N)n1 [Example 327, 2-(3-(5-Aminopyrazin-2-yl)-2-fluoro-6-isopentylphenoxy)pyrimidin-4-amine]	–	528 nM
